Consider two compounds from patent publication US20100041672A1, “USE OF QUINOLINE DERIVATIVES IN THE TREATMENT OF PAIN AND IRRITABLE BOWEL SYNDROME” (GLAXO GROUP LIMITED, priority 2007, published 2010).

One test relates to rats. Description: FCA induced hypersensitivity rat model (intraplantar FCA, weight bearing). The format is in vivo. As to conditions: 1 hour post dose; for weight bearing % reversal: 24 hrs after FCA; for effect on FCA induced hypersensitivity: p.o., intraplantar FCA. As for the experimental part: (§1) Naïve weight bearing readings were taken. The hypersensitivity to pain was measured using the Rat incapacitance tester (Linton instruments). All rats (180-220 g) received an intraplantar injection of 100 ul of FCA (Freund's complete adjuvant) into the left hind paw. The FCA was sonicated for 15 minutes prior to use. 24 hrs after administration of the FCA, pre-dose weight bearing readings were taken. All animals were then ranked and randomised for dosing according to their FCA window (predose difference in grams—naïve difference in grams). Rats with FCA window less than 30 were excluded from the study.
Animals were then dosed orally with either vehicle, SB42457 (0.01, 0.1, 1 and 10 mg/kg p.o.) or celecoxib (10 mg/kg p.o.) as appropriate according to ranking and randomisation. Animals were assessed in the weight bearing apparatus 1 hour post dose.
The study was blind and randomised by FCA window using the Latin square method. % reversals were calculated by using the naïve, pre-dose and post dose values as follows: % Reversal=[(Pre-dose−Post-dose)/(Pre-dose−Naïve)]×100.
Graphs were plotted using Prism3. Statistical analysis was carried out using ANOVA and Fischer LSD test from statistical package Statistica 6.
In this study a positive control was also tested (celecoxib).
as §1, with “(200-220” for “(180-220”
Animals were then dosed orally with vehicle, SB-792988-A (0.01, 0.1, 1 and 10 mg/kg p.o.), SB-399885-A (10 mg/kg p.o.) or celecoxib (10 mg/kg p.o.) as appropriate according to ranking and randomisation. Animals were assessed in the weight bearing apparatus 1 hour post dose.
Graphs and were plotted using Prism3. Statistical analysis was carried out using ANOVA and Fischer LSD test from statistical package Statistica 6.

In the next test the test system is male Sprague Dawley rats. The experiment in a line: rat intra rectal mustard oil model of visceral pain. The format is in vivo. As to conditions: for reduction in behaviours compared to vehicle treated animals: behaviours counted 25 minutes; for statistical significance of reduction in behaviours vs vehicle: orally 60 minutes prior to mustard oil, all doses examined. As for the experimental part:
All behavioural responses consistent with the presence of pain were determined following intra rectal injection of mustard oil in male Sprague Dawley rats. Typical behavioural responses consistent with the presence of pain following intra-colonic mustard oil injection include: arching, abdominal lifting, abdominal tensing, stretching, extending the rear leg (when lying down), raising and lowering the testicles, tip-toeing and writhing.
Male Sprague Dawley rats (130 g-160 g) were briefly sedated with 50% oxygen/50% carbon dioxide and 0.2 ml of 3% mustard oil injected into the colorectum, 1.5 cm from the anus. The anus was plugged with vaseline and animals placed in observational cages to which they had previously been acclimatised for 45 minutes prior to mustard oil injection. The number of visceral pain related behaviours, which consisted primarily of abdominal arching, were counted over a 25 minute period and the animals culled by cervical dislocation.
In separate studies, the effects of alosetron (0.1, 0.3 and 1.0 mg/kg n=10 per group), gabapentin (10, 30 and 100 mg/kg n=10 per group) and amitriptyline (3, 10 and 30 mg/kg n=9-10 per group) or vehicle (saline for alosetron and amitriptyline 10% 1-Methyl-2-pyrolidone in saline for gabapentin n=10 per study) given sub cutaneously 15 minutes prior to injection of 3% mustard oil were examined on pain behaviour. Results in FIGS. 4, 5 and 6 are expressed as mean±sem percentage of behaviours compared to vehicle treated animals and were statistically compared to vehicle treated animals using a one way ANOVA with Dunnett's comparison, p<0.05 considered significant.
The effect of SB742457 (0.03, 0.1, 1.0, 3.0 and 10 mg/kg, n=10 per group for the 0.03, 0.1 and 10 mg/kg groups, and n=20 for the 1.0 and 3.0 mg/kg groups) or vehicle (saline n=20) given orally 60 minutes prior to injection of mustard oil (3% mustard oil, 70% ethanol in saline) were examined on pain behaviour. The total number of visceral pain related behaviours, which consisted primarily of abdominal arching, were counted over a 25 minute period and the animals culled by cervical dislocation. Behaviours were normalised as the percentage of the vehicle group mean and expressed as mean+/−sem. Data was combined from two studies and normalised as the percentage of the vehicle group mean for each individual study and expressed as mean+/−sem for both studies. Percentage of behaviours compared to vehicle treated animals were analysed statistically using a one way ANOVA with Dunnett's comparison, p<0.05 considered significant, FIG. 10.
The effect of SB792988A (0.03, 0.1, 0.3, 1.0, 3.0 and 10 mg/kg, n=9 for 1.0 mg/kg, n=10 per group for the 0.03, 0.1 and 3.0 mg/kg groups, n=20 per group for the 0.3 and 10 mg/kg groups) or vehicle (saline n=20) given orally 60 minutes prior to injection of mustard oil (3% mustard oil, 70% ethanol in saline) were examined on pain behaviour. The total number of visceral pain related behaviours, which consisted primarily of abdominal arching, were counted over a 25 minute period and the animals culled by cervical dislocation. Behaviours were normalised as the percentage of the vehicle group mean and expressed as mean+/−sem. Data was combined from two studies and normalised as the percentage of the vehicle group mean for each individual study and expressed as mean+/−sem for both studies. Percentage of behaviours compared to vehicle treated animals were analysed statistically using a one way ANOVA with Dunnett's comparison, p<0.05 considered significant, FIG. 11.

[1] abbreviates: 0.03 mg/kg orally 60 minutes prior to mustard oil.
Where [2] appears, read: 0.1 mg/kg orally 60 minutes prior to mustard oil.
The mark [3] stands for this setting: 1.0 mg/kg orally 60 minutes prior to mustard oil.
[4] abbreviates: 3.0 mg/kg orally 60 minutes prior to mustard oil.
Setting [5] is: 10 mg/kg orally 60 minutes prior to mustard oil.

The structures appear in SMILES notation.

`O=S(=O)(c1ccccc1)c1cnc2c(N3CCNCC3)cccc2c1` [SB742457, 3-Phenylsulfonyl-8-piperazin-1-yl-quinoline]: the “weight bearing % reversal” value amounted to 27.68 ± 6.39% in the test on rats (0.01 mg/kg p.o., Table 5); 53.09 ± 5.68% with rats (0.1 mg/kg p.o., Table 5); 60.17 ± 6.73% with rats (1 mg/kg p.o., Table 5); 76.97 ± 7.17% with rats (10 mg/kg p.o., Table 5). In addition, the “effect on FCA induced hypersensitivity” value with rats is recorded as “dose-dependent reversal”. Also, the “reduction in behaviours compared to vehicle treated animals” value in the test with male Sprague Dawley rats (setting [1]) worked out at 56%; in the test on male Sprague Dawley rats (setting [2]), 56%; with male Sprague Dawley rats (setting [3]) it was 44%; with male Sprague Dawley rats (setting [4]) it was 50%; in the test with male Sprague Dawley rats (setting [5]) it was 62%. Further, the “statistical significance of reduction in behaviours vs vehicle” value in the test on male Sprague Dawley rats is “statistically significant from vehicle treated animals at all doses examined”.

With `Cl.O=S(=O)(c1cccc(F)c1)c1cnc2c(N3CCNCC3)cccc2c1` [SB792988A, 3-[(3-Fluorophenyl)sulfonyl]-8-(1-piperazinyl)quinoline Hydrochloride], the “weight bearing % reversal” value with rats (0.01 mg/kg p.o., Table 7) came out at 22.91 ± 4.13%; in the test with rats (0.1 mg/kg p.o., Table 7), 22.11 ± 5.18%; in the test with rats (1 mg/kg p.o., Table 7), 38.76 ± 5.88%; with rats (10 mg/kg p.o., Table 7), 67.00 ± 5.08%. In addition, in the test on rats, the “effect on FCA induced hypersensitivity” value is given as “dose-dependent reversal”. Besides, the “reduction in behaviours compared to vehicle treated animals” value in the test on male Sprague Dawley rats (setting [1]) was determined as 38%; with male Sprague Dawley rats (setting [2]), 40%; in the test on male Sprague Dawley rats (0.3 mg/kg orally 60 minutes prior to mustard oil) it was 42%; in the test on male Sprague Dawley rats (setting [3]) it was 55%; with male Sprague Dawley rats (setting [4]) it was 65%; with male Sprague Dawley rats (setting [5]) it was 74%. The “statistical significance of reduction in behaviours vs vehicle” value with male Sprague Dawley rats was “statistically significant from vehicle treated animals at all doses examined”.
